According to ChEMBL document CHEMBL1136921, “Benzylguanidines and other galegine analogues inducing weight loss in mice” (J Med Chem, 2009):
The source made the active and inactive calls.

What was measured:
Assay type in all cases: functional, organism-based
Mus musculus [1] = assay: Hypoglycemic activity in lean normal BALB/c mouse assessed as blood glucose level at equimolar dose of 0.5 mmol/kg galegine administered daily through diet for 7 days
Mus musculus [2] = assay: Antiobesity activity in lean normal BALB/c mouse assessed as change in average daily weight at equimolar dose of 0.5 mmol/kg galegine administered daily through diet for 7 days
Mus musculus [3] = assay: Antidiabetic activity in lean normal BALB/c mouse assessed as effect on blood lactate level at equimolar dose of 0.5 mmol/kg galegine administered daily through diet for 7 days
Mus musculus [4] = assay: Antiobesity activity in lean normal BALB/c mouse assessed as change in average daily food intake at equimolar dose of 0.5 mmol/kg galegine administered daily through diet for 7 days

Measured: Activity

N=C(N)NCc1ccccc1C(F)(F)F
inactive: Mus musculus [1] | Mus musculus [2] | Mus musculus [3] | Mus musculus [4]

CCOc1ccc(CNC(=N)N)cc1
inactive: Mus musculus [1] | Mus musculus [2] | Mus musculus [3] | Mus musculus [4]

COc1ccc(CNC(=N)N)cc1OC
inactive: Mus musculus [1] | Mus musculus [2] | Mus musculus [3] | Mus musculus [4]

CC(C)CCNC(=N)N
inactive: Mus musculus [1] | Mus musculus [2] | Mus musculus [3] | Mus musculus [4]

CC(C)=CCNC1=NCCN1
inactive: Mus musculus [1] | Mus musculus [2] | Mus musculus [3] | Mus musculus [4]

COc1ccc(OC)c(CNC(=N)N)c1
inactive: Mus musculus [1] | Mus musculus [2] | Mus musculus [3] | Mus musculus [4]

N=C(N)N1CCc2ccccc2C1
inactive: Mus musculus [1] | Mus musculus [2] | Mus musculus [3] | Mus musculus [4]

CC(C)=CCNc1ccccn1
inactive: Mus musculus [1] | Mus musculus [2] | Mus musculus [3] | Mus musculus [4]

Cc1ccccc1CNC(=N)N
inactive: Mus musculus [1] | Mus musculus [2] | Mus musculus [3] | Mus musculus [4]

COc1cccc(CNC(=N)N)c1OC
inactive: Mus musculus [1] | Mus musculus [2] | Mus musculus [3] | Mus musculus [4]

COc1ccc(CNC(=N)N)c(OC)c1
inactive: Mus musculus [1] | Mus musculus [2] | Mus musculus [3] | Mus musculus [4]

CC(C)=CCNC(=N)NC#N
inactive: Mus musculus [1] | Mus musculus [2] | Mus musculus [3] | Mus musculus [4]

CSCCCNC(=N)N
inactive: Mus musculus [1] | Mus musculus [2] | Mus musculus [3] | Mus musculus [4]

Cc1ccc(CNC(=N)N)cc1
inactive: Mus musculus [1] | Mus musculus [2] | Mus musculus [3] | Mus musculus [4]

N=C(N)NCC1CCCO1 (stereo not given)
inactive: Mus musculus [1] | Mus musculus [2] | Mus musculus [3] | Mus musculus [4]

C=CCNC(=N)N
inactive: Mus musculus [1] | Mus musculus [2] | Mus musculus [3] | Mus musculus [4]

CC(C)=CCNc1ncccn1
inactive: Mus musculus [1] | Mus musculus [2] | Mus musculus [3] | Mus musculus [4]

N=C(N)NCCCCNC(=N)N
inactive: Mus musculus [1] | Mus musculus [2] | Mus musculus [3] | Mus musculus [4]

COc1cccc(CNC(=N)N)c1
inactive: Mus musculus [1] | Mus musculus [2] | Mus musculus [3] | Mus musculus [4]

COc1ccc(CNC(=N)N)c(OC)c1OC
inactive: Mus musculus [1] | Mus musculus [2] | Mus musculus [3] | Mus musculus [4]

COc1ccc(CNC(=N)N)cc1
inactive: Mus musculus [1] | Mus musculus [2] | Mus musculus [3] | Mus musculus [4]

N=C(N)NCc1c(F)cccc1Cl
inactive: Mus musculus [1] | Mus musculus [2] | Mus musculus [3] | Mus musculus [4]

N=C(N)NCc1ccccn1
inactive: Mus musculus [1] | Mus musculus [2] | Mus musculus [3] | Mus musculus [4]

N=C(N)NCc1ccc(O)cc1
inactive: Mus musculus [1] | Mus musculus [2] | Mus musculus [3] | Mus musculus [4]

N=C(N)NCC1CCCCC1
inactive: Mus musculus [1] | Mus musculus [2] | Mus musculus [3] | Mus musculus [4]
